Data on two compounds can be found in patent US10421989B2, “Methods and reagents for riboswitch analysis” (CORNELL UNIVERSITY, priority 2014, dated 2019).

For test [1], the target named is wild-type (A11AP) preQ1-II riboswitch aptamer construct. The experiment in a line: 2-aminopurine fluorescence titration of preQ1 binding, wild-type aptamer. Also on record: species or system Streptococcus pneumoniae R6. The conditions noted are these: 0.5 μM RNA, 50 mM KMOPS, 100 mM KCl, Mg2+, 25° C.; 2-aminopurine at position A11. How it is done:
(§1) FIG. 10. A11/2-Aminopurine (A11AP) fluorescence measurements of WT and ΔP3 preQ1-II riboswitch variants. (a) Secondary structure of the WT/A11AP (left) and ΔP3/A11AP (right) preQ1-II variant. (b) Qualitative fluorescence response upon Mg^2+ (4 mM) and subsequent preQ1 addition (10 μM) (λex=308 nm; detection at 372 nm). (c) Fluorescence emission spectra (λex=308 nm) from 320 to 480 nm for each preQ1 concentration. (d) Normalized 2AP fluorescence intensity plotted as a function of preQ1 concentrations, changes in fluorescence (F-F0) were normalized to the maximum fluorescence measured in the absence of ligands. […]
(§2) Experiments were measured on a Cary Eclipse spectrophotometer (Varian) equipped with a peltier block and a magnetic stirring device. […] Spectra were recorded from 320 to 500 nm with excitation wavelength 308 nm and scan rate of 120 nm/min. The apparent binding constants KD were determined by following the increase in fluorescence after each titration step via integration of the area between 330 and 450 nm. Changes in fluorescence (F-F0) were normalized to the maximum fluorescence measured in the absence of ligand. Measurements for each titration step was repeated at least two times and the mean of the normalized fluorescence intensity was plotted against ligand concentration. The final KD value is the arithmetic mean, determined from two to three independent titration experiments.

Test [2] has as its target truncated (ΔP3/A11AP) preQ1-II riboswitch aptamer construct. The experiment in a line: 2-aminopurine fluorescence titration of preQ1 binding, truncated aptamer. More on the design: species or system Streptococcus pneumoniae R6. How it is done: as §1, §2
Test [3] concerns the target dye-labeled TPP riboswitch (WT/24-68). The experiment in a line: smFRET titration of TPP, high-FRET state occupancy. The conditions noted are these: TPP 0 to 100 μM, 2 mM Mg2+; fit y=ymax(x/x+Kd); read-out: estimated Kd (apparent dissociation constant). In kind it is binding, E. coli. As to the method:
FIG. 20. Former tpp The dye-labeled TPP riboswitch (WT/24-68) binds TPP with nanomolar affinity. The affinity of TPP for the WT/24-68 labeled construct was estimated by titrating TPP from 0 to 100 μM in the presence of 2 mM Mg^2+, and quantifying the change in population of fully folded riboswitch molecules (high-FRET state occupancy) as a function of TPP concentration using single-molecule FRET measurements. Shown (black squares) is the average high-FRET state occupancy value (total area under the curve) obtained by fitting population FRET histograms to three Gaussian distributions (low-, intermediate- and high-FRET) over three independent experiments. Each value was normalized to the percent high-FRET state occupancy observed at […]. […]
smFRET data were acquired using a prism-based total internal reflection microscope, where the biotinylated TPP riboswitch was surface immobilized within PEG-passivated, strepatividin-coated quartz microfluidic devices. {Dave R, et al 2009} The Cy3 fluorophore was directly illuminated under 1.5 kW cm^−2 intensity at 532 nm (Laser Quantum). […] Fluorescence data were acquired using MetaMorph acquisition software (Universal Imaging Corporation) at a rate of 66.7 frames per second (15 ms integration). Fluorescence trajectories were selected from the movie files for analysis using automated image analysis software coded in Matlab (The MathWorks). […]

“And” between values parts separate entries of the source, which are not always exact repeats. Identical values can stand only once.

With `NCC1C=Nc2nc(N)[nH]c(=O)c21` (stereo not shown) [preQ1, 7-aminomethyl-7-deazaguanine], the Kd in test [1] came to 430 ± 10 nM; in test [2] (0.5 μM RNA, 50 mM KMOPS, 100 mM KCl, Mg2+, 25° C., 2-aminopurine at position A11) it was 4200 ± 100 nM. The “decrease in affinity compared to the wild-type (A11AP) aptamer construct” value in test [2] (truncated construct vs wild-type) was 10 fold.
Take `Cc1ncc(C[n+]2csc(CCO[P@](=O)(O)OP(=O)(O)O)c2C)c(N)n1` [TPP, thiamine pyrophosphate]: the Kd in test [3] was ~100 nM and 115 nM.
